Where two headings read alike, the source gives them in different places.
Experiments:
h5-HT transporter = molecular target: T1, h5-HT transporter (Homo sapiens, UniProt P31645); assay: Radioligand binding experiment for 5-HT transporter ([3H]paroxetine, human platelet membranes); conditions: for IC50: read-out: 5HTT pIC50 (converted)
T1 construct: Human platelet membranes (Oceanix Biosciences Corporation, Hanover, Md., USA) were thawed; tissue Oceanix Biosciences Corporation, Hanover, Md., USA; host or cells: human platelet membranes
T1 sequence (P31645 whole entry): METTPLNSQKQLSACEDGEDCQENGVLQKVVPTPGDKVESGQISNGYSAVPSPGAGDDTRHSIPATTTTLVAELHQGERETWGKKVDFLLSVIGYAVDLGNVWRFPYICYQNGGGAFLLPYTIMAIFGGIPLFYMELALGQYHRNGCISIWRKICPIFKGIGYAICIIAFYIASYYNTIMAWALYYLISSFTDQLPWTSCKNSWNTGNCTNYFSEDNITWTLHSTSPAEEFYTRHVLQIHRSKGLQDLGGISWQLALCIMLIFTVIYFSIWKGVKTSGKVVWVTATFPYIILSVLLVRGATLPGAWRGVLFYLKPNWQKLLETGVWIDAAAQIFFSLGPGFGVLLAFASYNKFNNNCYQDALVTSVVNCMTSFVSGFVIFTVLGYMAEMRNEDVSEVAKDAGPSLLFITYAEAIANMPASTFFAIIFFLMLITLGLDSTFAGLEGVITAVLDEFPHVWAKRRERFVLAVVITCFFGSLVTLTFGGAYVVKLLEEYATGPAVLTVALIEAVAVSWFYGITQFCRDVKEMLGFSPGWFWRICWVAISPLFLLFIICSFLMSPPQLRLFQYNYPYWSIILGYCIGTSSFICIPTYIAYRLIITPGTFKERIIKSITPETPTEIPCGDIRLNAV
Protocol: (§1) The interaction of the compounds of Formula (I) with hα2-receptors and h5-HT-transporters was assessed in in vitro radioligand binding experiments. In general, a low concentration of a radioligand with a high binding affinity for a particular receptor or transporter is incubated with a sample of a tissue preparation enriched in a particular receptor or transporter or with a preparation of cells expressing cloned human receptors in a buffered medium. During the incubation, the radioligand binds to the receptor or transporter. When equilibrium of binding is reached, the receptor bound radioactivity is separated from the non-bound radioactivity, and the receptor- or transporter-bound activity is counted. The interaction of the test compounds with the receptor is assessed in competition binding experiments. Various concentrations of the test compound are added to the incubation mixture containing the receptor- or transporter preparation and the radioligand. The test compound in proportion to its binding affinity and its concentration inhibits binding of the radioligand. The radioligand used for hα2A, hα2B and hα2C receptor binding was [^3H]-raulwolscine and for the h5-HT transporter was [^3H]paroxetine.
Human platelet membranes (Oceanix Biosciences Corporation, Hanover, Md., USA) were thawed, diluted in buffer (Tris-HCl 50 mM, 120 mM NaCl and 5 mM KCl) and quickly (max 3 s) homogenised with an Ultraturrax homogenizer. […] Filters were rinsed extensively with ice-cold buffer and radioactivity on the filters was counted in a Topcount liquid scintillation counter (Packard, Meriden, Conn.). Data were expressed as cpm. Imipramine (at 1 μM final concentration) was used to determine the non-specific binding.
(§2) Data from assays in the presence of compound were calculated as a percentage of total binding measured in the absence of test compound. Inhibition curves, plotting percent of total binding versus the log value of the concentration of the test compound, were automatically generated, and sigmoidal inhibition curves were fitted using non-linear regression. The pIC50 values of test compounds were derived from individual curves.

hα2C receptor = molecular target: T2, hα2C receptor (Homo sapiens, UniProt P18825); assay: Radioligand binding experiment for hα2C receptor ([3H]-raulwolscine); conditions: for IC50: read-out: hα2C pIC50 (converted)
T2 construct: expressed in transfected cells
T2 sequence (P18825 1-462): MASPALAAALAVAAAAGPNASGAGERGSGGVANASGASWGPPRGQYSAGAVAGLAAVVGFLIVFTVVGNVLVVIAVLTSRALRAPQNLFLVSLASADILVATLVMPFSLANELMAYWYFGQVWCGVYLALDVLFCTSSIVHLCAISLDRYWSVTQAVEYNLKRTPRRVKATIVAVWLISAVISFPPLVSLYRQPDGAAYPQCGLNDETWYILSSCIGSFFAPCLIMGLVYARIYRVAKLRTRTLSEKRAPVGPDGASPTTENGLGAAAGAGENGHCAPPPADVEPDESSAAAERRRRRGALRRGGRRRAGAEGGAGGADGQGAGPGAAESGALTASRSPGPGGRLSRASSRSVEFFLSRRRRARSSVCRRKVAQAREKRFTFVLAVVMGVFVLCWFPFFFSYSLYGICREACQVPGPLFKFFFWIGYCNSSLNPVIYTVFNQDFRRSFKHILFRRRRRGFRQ
Protocol: as §1
(§3) CHO cells, stabile transfected with human adrenergic-α2A-, -α2B or α2C receptor cDNA, were cultured in Dulbecco's Modified Eagle's Medium (DMEM)/Nutrient mixture Ham's F12 (ratio 1:1)(Gibco, Gent-Belgium) supplemented with 10% heat inactivated fetal calf serum (Life Technologies, Merelbeke-Belgium) and antibiotics (100 IU/ml penicillin G, 100 μg/ml streptomycin sulphate, 110 μg/ml pyruvic acid and 100 μg/ml L-glutamine). One day before collection, cells were induced with 5 mM sodiumbutyrate. Upon 80–90% of confluence, cells were scraped in phosphate buffered saline without Ca^2+ and Mg^2+ and collected by centrifugation at 1500×g for 10 min. The cells were homogenised in Tris-HCl 50 mM using an Ultraturrax homogenizer and centrifuged for 10 min at 23,500×g. The pellet was washed once by resuspension and rehomogenization and the final pellet was resuspended in Tris-HCl, divided in 1 ml aliquots and stored at −70° C.
(§4) Membranes were thawed and re-homogenized in incubation buffer (glycylglycine 25 mM, pH 8.0). […] Filters were rinsed extensively with ice-cold rinsing buffer (Tris-HCl 50 mM pH 7.4). Filter-bound radioactivity was determined by scintillation counting in a Topcount (Packard, Meriden, Conn.) and results were expressed as counts per minute (cpm). Non-specific binding was determined in the presence of 1 μM oxymetazoline for hα2A- and hα2B receptors and 1 μM spiroxatrine for hα2C receptors.
as §2

hα2A receptor = molecular target: T3, hα2A receptor (Homo sapiens, UniProt P08913); assay: Radioligand binding experiment for hα2A receptor ([3H]-raulwolscine); conditions: membranes of CHO cells expressing human α2A receptor, [3H]raulwolscine 1 nM; for IC50: read-out: hα2A pIC50 (converted)
T3 construct: expressed in transfected cells
T3 sequence (P08913 1-465): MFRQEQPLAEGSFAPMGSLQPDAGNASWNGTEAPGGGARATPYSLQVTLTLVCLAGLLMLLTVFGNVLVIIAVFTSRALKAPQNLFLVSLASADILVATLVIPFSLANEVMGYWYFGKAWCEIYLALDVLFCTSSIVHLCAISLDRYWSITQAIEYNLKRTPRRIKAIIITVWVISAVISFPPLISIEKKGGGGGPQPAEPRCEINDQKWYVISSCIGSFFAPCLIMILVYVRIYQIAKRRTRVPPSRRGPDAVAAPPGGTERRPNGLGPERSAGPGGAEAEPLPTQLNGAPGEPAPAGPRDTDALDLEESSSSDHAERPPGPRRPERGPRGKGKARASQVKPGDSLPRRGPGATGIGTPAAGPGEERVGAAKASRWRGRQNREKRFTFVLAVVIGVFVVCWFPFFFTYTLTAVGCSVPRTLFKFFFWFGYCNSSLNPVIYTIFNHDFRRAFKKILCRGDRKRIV
Protocol: as §1, §3, §4, §2

hα2B receptor = molecular target: T4, hα2B receptor (Homo sapiens, UniProt P18089); assay: Radioligand binding experiment for hα2B receptor ([3H]-raulwolscine); conditions: for IC50: read-out: hα2B pIC50 (converted)
T4 construct: expressed in transfected cells
T4 sequence (P18089 1-450): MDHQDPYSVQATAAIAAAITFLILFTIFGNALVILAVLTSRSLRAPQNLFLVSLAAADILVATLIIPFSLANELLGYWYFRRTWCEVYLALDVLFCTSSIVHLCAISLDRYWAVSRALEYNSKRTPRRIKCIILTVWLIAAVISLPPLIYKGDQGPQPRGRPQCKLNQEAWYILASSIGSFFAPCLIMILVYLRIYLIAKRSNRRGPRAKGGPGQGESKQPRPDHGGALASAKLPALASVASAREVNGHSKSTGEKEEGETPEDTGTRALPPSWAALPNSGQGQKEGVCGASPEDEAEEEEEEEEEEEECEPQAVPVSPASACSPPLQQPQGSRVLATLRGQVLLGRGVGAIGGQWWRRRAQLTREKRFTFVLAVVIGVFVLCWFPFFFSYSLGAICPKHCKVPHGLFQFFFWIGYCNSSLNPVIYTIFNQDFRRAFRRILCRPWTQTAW
Protocol: as §1, §3, §4, §2

[1] = human platelet membranes, [3H]paroxetine 0.5 nM
[2] = membranes of CHO cells expressing human α2C receptor, [3H]raulwolscine 1 nM
[3] = membranes of CHO cells expressing human α2B receptor, [3H]raulwolscine 1 nM

Row | IC50 (h5-HT transporter; [1]) [nM] | IC50 (hα2C receptor; [2]) [nM] | IC50 (hα2A receptor) [nM] | SMILES | other results
1 |  |  |  | COc1cc2c(cc1SC)OCC1C2=NOC1CN1CCN(CC(C)=Cc2ccccc2)CC1.O=C(O)C(F)(F)F (racemic) [Compound 350] | 5HTT pIC50 (h5-HT transporter; [1]): 7.69; hα2C pIC50 (hα2C receptor; [2]): 8.68; hα2A pIC50 (hα2A receptor): 8.39
2 | 4.17 | 3.09 | 12.6 | COc1cc2c(cc1OC)C1=NOC(CN3CCN(C/C=C(\C)c4ccc(F)cc4)CC3)C1CO2 (single isomer, unassigned) [Compound 361] | 
3 | 871 | 64.6 | 214 | COc1cc2c(cc1OC)C1=NOC(CN3CCN(CCC(O)c4ccccc4)CC3)C1CO2 (centres unmarked) [Compound 310] | 
4 | 13.5 | 7.08 | 5.13 | COc1cc2c(cc1OC(C)=O)OCC1C2=NOC1CN1CCN(Cc2ccc3ccccc3c2)CC1 (centres unmarked) [Compound 355] | 
5 | 11.5 | 3.31 | 12.9 | COc1cc2c(cc1OC)C1=NOC(CN3CCN(C/C=C(\C)c4cccc(Cl)c4)CC3)C1CO2 (single isomer, unassigned) [Compound 366] | 
6 | 15.1 | 9.55 | 6.17 | COc1cc2c(cc1OC)C1=NOC(CN3CCN(C/C=C(\C)c4ccsc4)CC3)C1CO2 (single isomer, unassigned) [Compound 323] | 
7 | 17.4 | 0.162 | 8.51 | COCCOCOc1cc2c(cc1OC)C1=NOC(CN3CCN(C/C(C)=C/c4ccccc4)CC3)C1CO2 (single isomer, unassigned) [Compound 342] | 
8 |  |  |  | COc1cc2c(cc1OS(C)(=O)=O)OCC1C2=NOC1CN1CCN(CC(C)=Cc2ccccc2)CC1 (single isomer, unassigned) [Compound 346] | 5HTT pIC50 (h5-HT transporter; [1]): 8.37; hα2C pIC50 (hα2C receptor; [2]): 8.91; hα2A pIC50 (hα2A receptor): 8.65
9 | 37.2 | 1.23 | 2.34 | COC(=O)Oc1cc2c(cc1OC)C1=NOC(CN3CCN(C/C(C)=C/c4ccccc4)CC3)C1CO2 (single isomer, unassigned) [Compound 343] | 
10 | 58.9 | 0.603 | 4.47 | COc1cc2c(cc1OCCOC(C)=O)C1=NOC(CN3CCN(CC(C)=Cc4ccccc4)CC3)C1CO2 (centres unmarked) [Compound 332] | 
11 |  |  |  | COc1cc2c(cc1OC)C1=NOC(CN3CCN(Cc4ccc5ccccc5c4)CC3)C1CO2 (single isomer, unassigned) [Compound 16] | IC50 (h5-HT transporter): 3.72 nM; IC50 (hα2B receptor): 6.17 nM; IC50 (hα2C receptor): 6.76 nM
12 | 1000 | 1000 | 851 | COc1cc2c(cc1OC)C1=NOC(CN3CCN(Cc4cccn4C)CC3)C1CO2 (centres unmarked) [Compound 291] | 
13 |  |  | 20.9 | COc1cc2c(cc1OCC1CC1)OCC1C2=NOC1CN1CCN(C/C(C)=C/c2ccc(F)cc2)CC1 (single isomer, unassigned) [Compound 337] | 
14 | 44.7 | 3.47 | 7.94 | COc1cc2c(cc1OC)C1=NOC(CN3CCN(C/C=C(\C)c4ccccc4F)CC3)C1CO2 (single isomer, unassigned) [Compound 359] | 
15 | 14.1 | 0.288 |  | COCCOc1ccc2c(c1)OCC1C2=NOC1CN1CCN(CC(C)=Cc2ccccc2)CC1 (centres unmarked) [Compound 239] | IC50 (hα2B receptor; [3]): 2.4 nM
16 | 302 |  | 195 | COc1cc2c(cc1OC)C1=NOC(CN3CCN(Cc4cccc(Br)c4)CC3)C1CO2 (centres unmarked) [Compound 90] | 
17 |  |  |  | COc1cc2c(cc1OC)C1=NOC(CN3CCN(CC(C)=Cc4ccccc4)CC3)C1CN2 (single isomer, unassigned) [Compound 253] | 5HTT pIC50 (h5-HT transporter; [1]): 6.60; hα2B pIC50 (hα2B receptor; [3]): 7.94; hα2C pIC50 (hα2C receptor; [2]): 7.98
18 |  | 2.29 | 2.69 | COc1cc2c(cc1OC(C)=O)OCC1C2=NOC1CN1CCN(C/C(C)=C/c2cccc(F)c2)CC1 (single isomer, unassigned) [Compound 334] | 
19 |  |  |  | C=CCOc1cc2c(cc1OC)C1=NOC(CN3CCN(CC(C)=Cc4ccccc4)CC3)C1CO2 (single isomer, unassigned) [Compound 344] | 5HTT pIC50 (h5-HT transporter; [1]): 8.00; hα2C pIC50 (hα2C receptor; [2]): 8.68; hα2A pIC50 (hα2A receptor): 8.45
20 | 389 | 58.9 | 50.1 | COc1cc2c(cc1OC)C1=NOC(CN3CCN(CCC(=O)c4ccccc4)CC3)C1CO2 (centres unmarked) [Compound 309] | 
21 | 17.8 | 1.32 | 1.2 | COc1ccc2c(c1)C1=NOC(CN3CCN(CC(C)=Cc4ccccc4)CC3)C1CO2 (centres unmarked) [Compound 348] | 
22 | 37.2 | 3.24 | 1.48 | COc1cc2c(cc1OC(C)=O)OCC1C2=NOC1CN1CCN(C/C=C(\C)c2ccccc2)CC1 (single isomer, unassigned) [Compound 358] | 

Row | SMILES | IC50 (h5-HT transporter; [1]) [nM] | IC50 (hα2C receptor; [2]) [nM] | IC50 (hα2A receptor) [nM] | other results
23 | COc1ccc2c(c1)OCC1C2=NOC1CN1CCN(CC=Cc2ccccc2)CC1 (centres unmarked) [Compound 217] | 53.7 |  |  | IC50 (hα2B receptor; [3]): 6.17 nM; IC50 (hα2C receptor): 14.1 nM
24 | CC(=Cc1ccccc1)CN1CCN(CC2ON=C3c4ccc(OC(=O)C5CC5)cc4OCC32)CC1 (centres unmarked) [Compound 250] | 81.3 |  |  | IC50 (hα2B receptor; [3]): 6.76 nM; IC50 (hα2C receptor): 3.31 nM

Reference: patent publication US7169786B2, “Isoxazoline derivatives as anti-depressants” (priority 2001, dated 2007)
